Patent US11541029B2, “High penetration compositions and their applications” (Techfields Pharma Co., Ltd., priority 2008, dated 2023)

What was measured:
SLAC/MRL/LPR mice = assay: Lupus in MRL/LPR mice treated from 16 weeks old, 30 mg/kg (10% aq.) on back skin twice per day; type: in vivo
Experimental: . Progression of lupus was monitored once a week by measurement of hematuria, body weight and survival rate. The experiments were carried out in two groups of mice. One group of mice were 8 weeks old and had not shown SLE characteristics (Table 26a). The other group of mice were 16 weeks old, and had shown SLE characteristics (Table 26b).

[1] = tested on: rats given sterilized E. coli suspension as a pyrogen; assay: Antipyretic activity of aspirin and its HPC (Study B); type: in vivo; details: for body temperature: in °C (unit assumed)
Experimental: […] Group A was the control group. The body temperature of rats was taken at 90 min. intervals before and after the administration of the test compounds.

Compound: CCN(CC)CCOC(=O)c1ccccc1OC(C)=O.Cl [P-1, diethylaminoethyl acetylsalicylate.HCl salt]
- Body Weight (SLAC/MRL/LPR mice; week 16): 42.6 ± 2.1 g
- Hematuria (0-4) (SLAC/MRL/LPR mice; week 16): 1.70 ± 0.26
- Survival Rate (SLAC/MRL/LPR mice; week 16): 10/10
- Body Weight (SLAC/MRL/LPR mice; week 17): 44.2 ± 2.0 g
- Hematuria (0-4) (SLAC/MRL/LPR mice; week 17): 1.50 ± 0.17
- Survival Rate (SLAC/MRL/LPR mice; week 17): 10/10
- Body Weight (SLAC/MRL/LPR mice; week 18): 46.6 ± 2.4 g
- Hematuria (0-4) (SLAC/MRL/LPR mice; week 18): 1.30 ± 0.15
- Survival Rate (SLAC/MRL/LPR mice; week 18): 10/10
- Body Weight (SLAC/MRL/LPR mice; week 19): 47.9 ± 2.5 g
- Hematuria (0-4) (SLAC/MRL/LPR mice; week 19): 0.80 ± 0.13
- Survival Rate (SLAC/MRL/LPR mice; week 19): 10/10
- Body Weight (SLAC/MRL/LPR mice; week 20): 46.8 ± 2.0 g
- Hematuria (0-4) (SLAC/MRL/LPR mice; week 20): 0.80 ± 0.13
- Survival Rate (SLAC/MRL/LPR mice; week 20): 10/10
- Body Weight (SLAC/MRL/LPR mice; week 21): 47.2 ± 2.2 g
- Hematuria (0-4) (SLAC/MRL/LPR mice; week 21): 0.80 ± 0.13
- Survival Rate (SLAC/MRL/LPR mice; week 21): 10/10
- Body Weight (SLAC/MRL/LPR mice; week 22): 47.6 ± 1.9 g
- Hematuria (0-4) (SLAC/MRL/LPR mice; week 22): 0.80 ± 0.20
- Survival Rate (SLAC/MRL/LPR mice; week 22): 10/10
- Body Weight (SLAC/MRL/LPR mice; week 23): 47.1 ± 2.3 g
- Hematuria (0-4) (SLAC/MRL/LPR mice; week 23): 0.80 ± 0.20
- Survival Rate (SLAC/MRL/LPR mice; week 23): 10/10
- Body Weight (SLAC/MRL/LPR mice; week 24): 46.8 ± 2.1 g
- Hematuria (0-4) (SLAC/MRL/LPR mice; week 24): 0.80 ± 0.20
- Survival Rate (SLAC/MRL/LPR mice; week 24): 10/10
- Body Weight (SLAC/MRL/LPR mice; week 25): 47.2 ± 2.0 g
- Hematuria (0-4) (SLAC/MRL/LPR mice; week 25): 0.70 ± 0.15
- Survival Rate (SLAC/MRL/LPR mice; week 25): 10/10
- Body Weight (SLAC/MRL/LPR mice; week 26): 46.9 ± 2.6 g
- Hematuria (0-4) (SLAC/MRL/LPR mice; week 26): 0.70 ± 0.15
- Survival Rate (SLAC/MRL/LPR mice; week 26): 10/10
- Body Weight (SLAC/MRL/LPR mice; week 27): 47.3 ± 2.0 g
- Hematuria (0-4) (SLAC/MRL/LPR mice; week 27): 0.60 ± 0.22
- Survival Rate (SLAC/MRL/LPR mice; week 27): 10/10
- Body Weight (SLAC/MRL/LPR mice; week 28): 47.6 ± 2.4 g
- Hematuria (0-4) (SLAC/MRL/LPR mice; week 28): 0.70 ± 0.15
- Survival Rate (SLAC/MRL/LPR mice; week 28): 10/10
- Body Weight (SLAC/MRL/LPR mice; week 29): 47.2 ± 2.5 g
- Hematuria (0-4) (SLAC/MRL/LPR mice; week 29): 0.70 ± 0.15
- Survival Rate (SLAC/MRL/LPR mice; week 29): 10/10
- Body Weight (SLAC/MRL/LPR mice; week 30): 46.4 ± 2.1 g
- Hematuria (0-4) (SLAC/MRL/LPR mice; week 30): 0.60 ± 0.22
- Survival Rate (SLAC/MRL/LPR mice; week 30): 10/10
- Body Weight (SLAC/MRL/LPR mice; week 31): 47.1 ± 2.2 g
- Hematuria (0-4) (SLAC/MRL/LPR mice; week 31): 0.80 ± 0.20
- Survival Rate (SLAC/MRL/LPR mice; week 31): 10/10
- Body Weight (SLAC/MRL/LPR mice; week 32): 46.6 ± 2.4 g
- Hematuria (0-4) (SLAC/MRL/LPR mice; week 32): 0.70 ± 0.15
- Survival Rate (SLAC/MRL/LPR mice; week 32): 10/10
- Body Weight (SLAC/MRL/LPR mice; week 33): 47.3 ± 2.1 g
- Hematuria (0-4) (SLAC/MRL/LPR mice; week 33): 0.50 ± 0.17
- Survival Rate (SLAC/MRL/LPR mice; week 33): 10/10
- Body Weight (SLAC/MRL/LPR mice; week 34): 47.6 ± 2.0 g
- Hematuria (0-4) (SLAC/MRL/LPR mice; week 34): 0.70 ± 0.15
- Survival Rate (SLAC/MRL/LPR mice; week 34): 10/10
- Body Weight (SLAC/MRL/LPR mice; week 35): 47.2 ± 2.0 g
- Hematuria (0-4) (SLAC/MRL/LPR mice; week 35): 0.70 ± 0.15
- Survival Rate (SLAC/MRL/LPR mice; week 35): 10/10
- Body Weight (SLAC/MRL/LPR mice; week 36): 46.9 ± 2.1 g
- Hematuria (0-4) (SLAC/MRL/LPR mice; week 36): 0.50 ± 0.17
- Survival Rate (SLAC/MRL/LPR mice; week 36): 10/10
- Body Weight (SLAC/MRL/LPR mice; week 37): 47.4 ± 2.7 g
- Hematuria (0-4) (SLAC/MRL/LPR mice; week 37): 0.70 ± 0.15
- Survival Rate (SLAC/MRL/LPR mice; week 37): 10/10
- Body Weight (SLAC/MRL/LPR mice; week 38): 46.9 ± 2.3 g
- Hematuria (0-4) (SLAC/MRL/LPR mice; week 38): 0.60 ± 0.22
- Survival Rate (SLAC/MRL/LPR mice; week 38): 10/10
- Body Weight (SLAC/MRL/LPR mice; week 39): 47.2 ± 2.0 g
- Hematuria (0-4) (SLAC/MRL/LPR mice; week 39): 0.50 ± 0.17
- Survival Rate (SLAC/MRL/LPR mice; week 39): 10/10
- Body Weight (SLAC/MRL/LPR mice; week 40): 47.6 ± 2.3 g
- Hematuria (0-4) (SLAC/MRL/LPR mice; week 40): 0.70 ± 0.15
- Survival Rate (SLAC/MRL/LPR mice; week 40): 10/10
- Body Weight (SLAC/MRL/LPR mice; week 41): 47.7 ± 2.2 g
- Hematuria (0-4) (SLAC/MRL/LPR mice; week 41): 0.60 ± 0.22
- Survival Rate (SLAC/MRL/LPR mice; week 41): 10/10
- Body Weight (SLAC/MRL/LPR mice; week 42): 46.9 ± 2.0 g
- Hematuria (0-4) (SLAC/MRL/LPR mice; week 42): 0.70 ± 0.15
- Survival Rate (SLAC/MRL/LPR mice; week 42): 10/10
- Body Weight (SLAC/MRL/LPR mice; week 43): 47.5 ± 2.8 g
- Hematuria (0-4) (SLAC/MRL/LPR mice; week 43): 0.60 ± 0.22
- Survival Rate (SLAC/MRL/LPR mice; week 43): 10/10
- Body Weight (SLAC/MRL/LPR mice; week 44): 47.6 ± 2.0 g
- Hematuria (0-4) (SLAC/MRL/LPR mice; week 44): 0.70 ± 0.15
- Survival Rate (SLAC/MRL/LPR mice; week 44): 10/10
- Body Weight (SLAC/MRL/LPR mice; week 45): 47.9 ± 2.5 g
- Hematuria (0-4) (SLAC/MRL/LPR mice; week 45): 0.50 ± 0.17
- Survival Rate (SLAC/MRL/LPR mice; week 45): 10/10
- Body Weight (SLAC/MRL/LPR mice; week 46): 47.6 ± 2.4 g
- Hematuria (0-4) (SLAC/MRL/LPR mice; week 46): 0.70 ± 0.15
- Survival Rate (SLAC/MRL/LPR mice; week 46): 10/10
- Body Weight (SLAC/MRL/LPR mice; week 47): 47.3 ± 2.8 g
- Hematuria (0-4) (SLAC/MRL/LPR mice; week 47): 0.60 ± 0.22
- Survival Rate (SLAC/MRL/LPR mice; week 47): 10/10
- Body Weight (SLAC/MRL/LPR mice; week 48): 46.6 ± 2.8 g
- Hematuria (0-4) (SLAC/MRL/LPR mice; week 48): 0.50 ± 0.17
- Survival Rate (SLAC/MRL/LPR mice; week 48): 10/10
- Body Weight (SLAC/MRL/LPR mice; week 49): 46.9 ± 2.1 g
- Hematuria (0-4) (SLAC/MRL/LPR mice; week 49): 0.60 ± 0.22
- Survival Rate (SLAC/MRL/LPR mice; week 49): 10/10
- Body Weight (SLAC/MRL/LPR mice; week 50): 47.1 ± 2.7 g
- Hematuria (0-4) (SLAC/MRL/LPR mice; week 50): 0.50 ± 0.17
- Survival Rate (SLAC/MRL/LPR mice; week 50): 10/10
- antipyretic activity ([1]; 20 mg/kg, oral administration): almost the same antipyretic activity as 100 mg/kg of aspirin
- body temperature ([1]; 20 mg/kg, orally, t = 0 min.): 37.6 ± 0.3
- body temperature ([1]; 20 mg/kg, orally, t = 90 min.): 37.1 ± 0.4
- body temperature ([1]; 20 mg/kg, orally, t = 180 min.): 36.8 ± 0.2
- body temperature ([1]; 20 mg/kg, orally, t = 270 min.): 36.5 ± 0.3
- body temperature ([1]; 50 mg/kg, orally, t = 0 min.): 37.6 ± 0.3
- body temperature ([1]; 50 mg/kg, orally, t = 90 min.): 36.7 ± 0.3
- body temperature ([1]; 50 mg/kg, orally, t = 180 min.): 36.5 ± 0.2
- body temperature ([1]; 50 mg/kg, orally, t = 270 min.): 36.4 ± 0.3
- body temperature ([1]; 100 mg/kg, orally, t = 0 min.): 37.6 ± 0.4
- body temperature ([1]; 100 mg/kg, orally, t = 90 min.): 36.6 ± 0.4
- body temperature ([1]; 100 mg/kg, orally, t = 180 min.): 36.5 ± 0.3
- body temperature ([1]; 100 mg/kg, orally, t = 270 min.): 36.4 ± 0.3
- body temperature ([1]; groups H/I, 50 mg/kg, transdermally, t = 0 min.): 37.5 ± 0.3
- body temperature ([1]; groups H/I, 50 mg/kg, transdermally, t = 90 min.): 36.5 ± 0.2
- body temperature ([1]; groups H/I, 50 mg/kg, transdermally, t = 180 min.): 36.3 ± 0.3
- body temperature ([1]; groups H/I, 50 mg/kg, transdermally, t = 270 min.): 36.4 ± 0.2
- body temperature ([1]; groups J/K, 20 mg/kg, transdermally, t = 0 min.): 37.5 ± 0.4
- body temperature ([1]; groups J/K, 20 mg/kg, transdermally, t = 90 min.): 36.7 ± 0.2
- body temperature ([1]; groups J/K, 20 mg/kg, transdermally, t = 180 min.): 36.4 ± 0.2
- body temperature ([1]; groups J/K, 20 mg/kg, transdermally, t = 270 min.): 36.4 ± 0.2
- body temperature ([1]; groups L/M, 20 mg/kg, transdermally, t = 0 min.): 37.6 ± 0.2
- body temperature ([1]; groups L/M, 20 mg/kg, transdermally, t = 90 min.): 36.5 ± 0.4
- body temperature ([1]; groups L/M, 20 mg/kg, transdermally, t = 180 min.): 36.4 ± 0.3
- body temperature ([1]; groups L/M, 20 mg/kg, transdermally, t = 270 min.): 36.5 ± 0.2
